These results are taken from PubChem BioAssay AID330 (DTP/NCI, 2004).

Where “and” joins values, the source holds several entries; their conditions need not be identical. Equal entries are not always repeated. Inconclusive results and toxic doses are left out.

The subject of the test is P388 leukemia ip, CD2F1 mice, survival T/C. Description: NCI In Vivo Anticancer Drug Screen. Data for tumor model P388 Leukemia (intraperitoneal) in CD2F1 (CDF1) mice. The settings on record: endpoint: median survival time, higher = longer survival. A digest of the protocol:
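Mice carrying the transplanted tumor received test compound or vehicle. Survival was recorded in each group, and the value is the treated-group measurement divided by that of the vehicle-treated control group.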

Where [1] appears, read: dose: 50.0 mg/kg/injection, schedule: Q01DX005 (ip), vehicle: saline with Tween-80.
The mark [2] stands for this setting: dose: 200.0 mg/kg/injection, schedule: Q01DX005 (ip), vehicle: saline with Tween-80.
[3] abbreviates: dose: 25.0 mg/kg/injection, schedule: Q04DX003 (ip), vehicle: saline.
Setting [4] is: dose: 400.0 mg/kg/injection, schedule: Q04DX003 (ip), vehicle: Klucel (hydroxypropylcellulose) (HPC).
[5] abbreviates: dose: 100.0 mg/kg/injection, schedule: Q04DX003 (ip), vehicle: saline with Tween-80.
The mark [6] stands for this setting: dose: 50.0 mg/kg/injection, schedule: Q01DX009 (ip), vehicle: Klucel (hydroxypropylcellulose) (HPC).

As to `Clc1ncnc2n[nH]c(Br)c12`, the T/C reads like this: (dose: 100.0 mg/kg/injection, schedule: Q04DX002 (ip), vehicle: water) 108 % of control; (dose: 200.0 mg/kg/injection, schedule: Q04DX002 (ip), vehicle: water) 116 % of control; (dose: 400.0 mg/kg/injection, schedule: Q04DX002 (ip), vehicle: water) 107 % of control.

With `CN1C(=O)CC2C(=O)N(Cc3ccccc3)C(=O)C2C1=O` (configuration not stated), the T/C runs as follows: under setting [1], 101 % of control; (dose: 100.0 mg/kg/injection, schedule: Q01DX005 (ip), vehicle: saline with Tween-80) 101 % of control; under setting [2], 96 % of control.

Regarding `C/C(=N\NC(=S)N1CCN(C)CC1)c1ccccn1`, the T/C is, setting by setting: under setting [3], 104 % of control; (dose: 50.0 mg/kg/injection, schedule: Q04DX003 (ip), vehicle: saline) 107 % of control; (dose: 100.0 mg/kg/injection, schedule: Q04DX003 (ip), vehicle: saline) 101 % of control.

Turning to `O=C(CCCCCCCCc1ccccc1)c1c(O)cccc1O`, the T/C is 95 % of control (dose: 6.0 mg/kg/injection, schedule: Q01DX009 (ip), vehicle: Klucel (hydroxypropylcellulose) (HPC)); 88 % of control (dose: 12.0 mg/kg/injection, schedule: Q01DX009 (ip), vehicle: Klucel (hydroxypropylcellulose) (HPC)); 97 % of control (dose: 24.0 mg/kg/injection, schedule: Q01DX009 (ip), vehicle: Klucel (hydroxypropylcellulose) (HPC)); 97 % of control (dose: 48.0 mg/kg/injection, schedule: Q01DX009 (ip), vehicle: Klucel (hydroxypropylcellulose) (HPC)).

With `CC1(C)CCC(C2=CC(=O)c3c(O)ccc(O)c3C2=O)O1` (configuration not stated), the T/C (dose: 3.12 mg/kg/injection, schedule: Q01DX005 (ip), vehicle: saline with Tween-80) was 103 % of control; the T/C (dose: 6.25 mg/kg/injection, schedule: Q01DX005 (ip), vehicle: saline with Tween-80) was 108 % of control; the T/C (dose: 12.5 mg/kg/injection, schedule: Q01DX005 (ip), vehicle: saline with Tween-80) was 99 % of control.

For the compound `O=C1CN2Cc3c(sc4c3CCCC4)N=C2N1`, the T/C is 106 % of control (dose: 50.0 mg/kg/injection, schedule: Q01DX005 (ip), vehicle: Klucel (hydroxypropylcellulose) (HPC)); 102 % of control (dose: 100.0 mg/kg/injection, schedule: Q01DX005 (ip), vehicle: Klucel (hydroxypropylcellulose) (HPC)); 99 % of control (dose: 200.0 mg/kg/injection, schedule: Q01DX005 (ip), vehicle: Klucel (hydroxypropylcellulose) (HPC)).

Consider `CSc1ccc(NC(=S)SCc2ccc3c(c2)OCO3)cc1Cl`, for which the T/C (dose: 50.0 mg/kg/injection, schedule: Q01DX009 (ip), vehicle: suspension in saline) was 105 % of control; the T/C (dose: 100.0 mg/kg/injection, schedule: Q01DX009 (ip), vehicle: suspension in saline) was 101 % of control; the T/C (dose: 200.0 mg/kg/injection, schedule: Q01DX009 (ip), vehicle: suspension in saline) was 98 % of control.

Consider `COc1cc(OC)c(OC)cc1/C=C/C1=C(C)C(=O)CC(c2cc(OC)c(OC)cc2OC)C1C` (configuration not stated), for which the T/C reads like this: (dose: 100.0 mg/kg/injection, schedule: Q01DX001 (ip), vehicle: Klucel (hydroxypropylcellulose) (HPC)) 86 % of control; (dose: 200.0 mg/kg/injection, schedule: Q01DX001 (ip), vehicle: Klucel (hydroxypropylcellulose) (HPC)) 86 % of control.

Take `CN(C)C(=S)S/C=C\C(=O)O`: the T/C by setting is: (dose: 6.25 mg/kg/injection, schedule: Q04DX003 (ip), vehicle: Klucel (hydroxypropylcellulose) (HPC)) 97 % of control; (dose: 12.5 mg/kg/injection, schedule: Q04DX003 (ip), vehicle: Klucel (hydroxypropylcellulose) (HPC)) 97 % of control; (dose: 25.0 mg/kg/injection, schedule: Q04DX003 (ip), vehicle: Klucel (hydroxypropylcellulose) (HPC)) 100 % of control; under setting [4], 88 % of control.

Consider `NC(C(=O)O)c1ccc(CBr)cc1` (configuration not stated), for which the T/C is, setting by setting: (dose: 25.0 mg/kg/injection, schedule: Q04DX003 (ip), vehicle: saline with Tween-80) 151 % of control; under setting [5], 151 % of control and 165 % of control.

`C1CN2CN3CCN(CN1C3)C2`: the T/C was 108 % of control (dose: 6.25 mg/kg/injection, schedule: Q01DX009 (ip), vehicle: saline); 158 % of control (dose: 50.0 mg/kg/injection, schedule: Q01DX009 (ip), vehicle: saline); 168 % of control (dose: 100.0 mg/kg/injection, schedule: Q01DX009 (ip), vehicle: saline).

For `CCOC(=O)C(CC)C1=CCCCC1` (configuration not stated), the T/C runs as follows: (dose: 50.0 mg/kg/injection, schedule: Q01DX009 (ip), vehicle: saline with Tween-80) 109 % of control; (dose: 100.0 mg/kg/injection, schedule: Q01DX009 (ip), vehicle: saline with Tween-80) 118 % of control; under setting [5], 109 % of control; (dose: 200.0 mg/kg/injection, schedule: Q01DX009 (ip), vehicle: saline with Tween-80) 118 % of control; (dose: 200.0 mg/kg/injection, schedule: Q04DX003 (ip), vehicle: saline with Tween-80) 100 % of control; (dose: 400.0 mg/kg/injection, schedule: Q04DX003 (ip), vehicle: saline with Tween-80) 113 % of control.

As for `Fc1ccc(CN2COc3c(cc(Cl)c4cccnc34)C2)cc1`, the T/C reads like this: (dose: 100.0 mg/kg/injection, schedule: Q04DX003 (ip), vehicle: Klucel (hydroxypropylcellulose) (HPC)) 102 % of control; (dose: 200.0 mg/kg/injection, schedule: Q04DX003 (ip), vehicle: Klucel (hydroxypropylcellulose) (HPC)) 100 % of control; under setting [4], 110 % of control.

Take `[Cl][Pt][Cl].[NH-]CCC[N-]CCCC[N-]CCC[NH-]`: the T/C (dose: 1.56 mg/kg/injection, schedule: Q04DX003 (ip), vehicle: saline) was 88 % of control; the T/C (dose: 3.13 mg/kg/injection, schedule: Q04DX003 (ip), vehicle: saline) is 98 % of control and 94 % of control; the T/C (dose: 6.25 mg/kg/injection, schedule: Q04DX003 (ip), vehicle: saline) is 107 % of control; the T/C (dose: 12.5 mg/kg/injection, schedule: Q04DX003 (ip), vehicle: saline) is 99 % of control and 119 % of control and 123 % of control; the T/C under setting [3] is 102 % of control and 122 % of control.

Regarding `CCCCNC(=O)C(c1ccccc1)c1ccccc1`, the T/C under setting [6] was 99 % of control; the T/C (dose: 100.0 mg/kg/injection, schedule: Q01DX009 (ip), vehicle: Klucel (hydroxypropylcellulose) (HPC)) is 106 % of control; the T/C (dose: 200.0 mg/kg/injection, schedule: Q01DX009 (ip), vehicle: Klucel (hydroxypropylcellulose) (HPC)) was 100 % of control.

As for `CN=C(N)N/N=C(\c1ccccc1)c1ccc(F)cc1`, the T/C reads like this: (dose: 12.5 mg/kg/injection, schedule: Q04DX002 (ip), vehicle: saline with Tween-80) 99 % of control; (dose: 25.0 mg/kg/injection, schedule: Q04DX002 (ip), vehicle: saline with Tween-80) 100 % of control and 111 % of control.

For the compound `CCOC(=O)C1(c2ccccc2)c2c(cnc3ccccc23)C(=O)N1C` (configuration not stated), the T/C was 101 % of control (dose: 60.0 mg/kg/injection, schedule: Q01DX005 (ip), vehicle: saline with Tween-80); 97 % of control (dose: 120.0 mg/kg/injection, schedule: Q01DX005 (ip), vehicle: saline with Tween-80); 97 % of control (dose: 240.0 mg/kg/injection, schedule: Q01DX005 (ip), vehicle: saline with Tween-80).

For `COc1cccc2c1C(=O)c1c(O)c3c(c(O)c1C2=O)C[C@@](O)(C(=O)COS(=O)(=O)c1ccc(C)cc1)C[C@@H]3OC1CC(N)C(O)C(C)O1` (some centres not stated), the T/C reads like this: (dose: 0.78 mg/kg/injection, schedule: Q01DX009 (ip), vehicle: water) 164 % of control; (dose: 1.56 mg/kg/injection, schedule: Q01DX009 (ip), vehicle: water) 161 % of control; (dose: 3.13 mg/kg/injection, schedule: Q01DX009 (ip), vehicle: water) 158 % of control and 161 % of control; (dose: 6.25 mg/kg/injection, schedule: Q01DX009 (ip), vehicle: water) 155 % of control and 180 % of control; (dose: 12.5 mg/kg/injection, schedule: Q01DX009 (ip), vehicle: water) 89 % of control.

Regarding `CCCCCCCCCCCCCCCCCCSC1=CC(=O)C(OC)=C(OC)C1=O`, the T/C is 92 % of control (dose: 3.13 mg/kg/injection, schedule: Q01DX009 (ip), vehicle: Klucel (hydroxypropylcellulose) (HPC)); 100 % of control (dose: 6.25 mg/kg/injection, schedule: Q01DX009 (ip), vehicle: Klucel (hydroxypropylcellulose) (HPC)); 100 % of control (dose: 12.5 mg/kg/injection, schedule: Q01DX009 (ip), vehicle: Klucel (hydroxypropylcellulose) (HPC)); 92 % of control (dose: 25.0 mg/kg/injection, schedule: Q01DX009 (ip), vehicle: Klucel (hydroxypropylcellulose) (HPC)); 97 % of control under setting [6].

On to `CCOC(=O)Nc1ccc(C2OCCS2)cc1` (configuration not stated), for which the T/C by setting is: under setting [1], 86 % of control; under setting [2], 90 % of control.
